{"source": "patent US4405717A", "about": "“Recovery of acetic acid from a fermentation broth” (priority 1981, dated 1983)", "key": {"[1]": {"settings": "for dissolution of the amine: aqueous calcium acetate solution, carbon dioxide added", "protocol": "In carrying out the process of this invention, a molar equivalent of a water-soluble tertiary amine carbonate is added to the calcium acetate solution. The tertiary amine carbonate used in the process can be generated by the addition of carbon dioxide to a solution or suspension of the tertiary amine in water. It is most convenient to generate the tertiary amine carbonate in situ by first adding a molar equivalent of the tertiary amine to the calcium acetate solution. Then carbon dioxide is added to the mixture to generate the tertiary amine carbonate directly in the calcium acetate solution. The addition of the carbon dioxide is carried out by any convenient means. Either solid or gaseous carbon dioxide is added to the solution at atmospheric pressure or at higher pressures in a pressure vessel.\nTo a solution of 20 g of acetic acid and 400 ml of water was added 16 g of calcium carbonate. […] To this was added 62 g of tributylamine."}, "[2]": {"experiment": "Extraction of trialkylammonium acetates: distribution coefficient (KD) between water and solvents", "type": "physicochemical", "settings": "conclusion from Table I", "protocol": "In one embodiment of this invention, the trialkylammonium acetate is extracted from the solution by means of an organic solvent. Polar solvents, such as esters, alcohols, ketones, ethers or chlorinated hydrocarbons can be used. The solvents should be insoluble or sparingly soluble in water and be good extractants for the acetate. This extraction ability is determined by measuring the amount of acetic acid in each phase when an acetate solution is extracted with an equal volume of extractant. The extraction ability is expressed as a Distribution Coefficient (KD) which is defined by the formula: [formula] The solvent should have a KD greater than about 0.4 and preferably greater than about 1.\nThe efficiency with which trialkylammonium acetates could be extracted from water solutions with various solvents was measured by determination of the KD of the salts between water and the solvents according to the following procedure:\nA mixture of 50 ml of a 5% aqueous solution of the acetate formed by the procedure of Example 1 and 50 ml of solvent in a 250-ml Erlenmeyer flask was shaken in a wrist-action shaker for 2 hours at room temperature. The mixture was transferred to a separatory funnel where it was allowed to stand for an additional hour before the phases were separated, weighed and analyzed. […]"}, "[3]": {"experiment": "Thermal decomposition (dissociation) of trialkylammonium acetates", "type": "physicochemical", "protocol": "In the final step of the process, the trialkylammonium acetate is heated to cause dissociation of the acetate with liberation of acetic acid and the amine. The temperature at which the acetate decomposes depends somewhat on the tertiary amine used. When tributylamine is employed, the acetate decomposes when held in a bath in the range of about 170°-190° C. with distillation of the acetic acid in a relatively pure form. The residue after distillation of the acid is tributylamine which can be recycled for use in the extraction process.\nThe syrup obtained in Example 1 was placed in a flask fitted with a 7-cm Vigreux column attached to a water-cooled condenser. The flask was heated in an oil bath to 180° C. at which temperature decomposition of the acetate occurred. The yield of acetic acid distilling at 115°-118° C. was 18.3 g which represents a 91.5% recovery of the acetic acid present in the solution.\nWhen the process of Example 2 was repeated with the syrups containing trimethylammonium acetate, triethylammonium acetate and tripropylammonium acetate, the products that were obtained were either azeotropes or mixtures of the tertiary amine and acetic acid."}}, "note": "Where two headings read alike, the source gives them in different places.", "data": [{"smiles": "CN(C)c1ccncc1", "note": "[4-dimethylaminopyridine]", "values": [{"measurement": "dissolution of the amine", "setting": "[1]", "result": "all of the amine went into solution"}]}, {"smiles": "CC(=O)O.CCCCN(CCCC)CCCC", "note": "[Tributylammonium Acetate, tributylammonium acetate]", "values": [{"measurement": "extraction from water with the solvents (in words)", "setting": "[2]", "result": "much more efficient than any of the other combinations"}, {"measurement": "decomposition temperature of the acetate", "setting": "[3]; heated in an oil bath, Example 2", "result": 180, "unit": "°C"}]}, {"smiles": "CN(C1CCCCC1)C1CCCCC1", "note": "[dicyclohexylmethylamine]", "values": [{"measurement": "dissolution of the amine", "setting": "[1]", "result": "all of the amine went into solution"}]}, {"smiles": "CCCCCCCCCCCCN(C)C", "note": "[dimethyldodecylamine, N,N-dimethyldodecylamine]", "values": [{"measurement": "behaviour of the salt on distillation", "setting": "[3]; salts prepared from long-chain amines", "result": "distillation was accompanied by unknown side-reactions"}]}, {"smiles": "CCCCCN(CCCCC)CCCCC", "note": "[triamylamine]", "values": [{"measurement": "dissolution of the amine", "setting": "[1]", "result": "the amine did not dissolve"}]}, {"smiles": "CCCCN(CCCC)CCCC", "note": "[tributylamine]", "values": [{"measurement": "dissolution of the amine", "setting": "[1]; listed as Tributylamine", "result": "dissolves readily"}]}, {"smiles": "CCCCCCN(CCCCCC)CCCCCC", "note": "[trihexylamine]", "values": [{"measurement": "water solubility of the amine carbonate", "setting": "[1]", "result": "do not form carbonates which are sufficiently soluble in water"}, {"measurement": "dissolution of the amine", "setting": "[1]", "result": "the amine did not dissolve"}]}, {"smiles": "CC(C)CCCCCN(CCCCCC(C)C)CCCCCC(C)C", "note": "[triisooctylamine]", "values": [{"measurement": "dissolution of the amine", "setting": "[1]", "result": "the amine did not dissolve"}]}, {"smiles": "CN(C)C", "note": "[trimethylamine]", "values": [{"measurement": "water solubility of the amine carbonate", "setting": "[1]; general statement", "result": "form carbonates which are water soluble"}]}, {"smiles": "CCCCCCCCN(CCCCCCCC)CCCCCCCC", "note": "[trioctylamine]", "values": [{"measurement": "water solubility of the amine carbonate", "setting": "[1]", "result": "do not form carbonates which are sufficiently soluble in water"}]}, {"smiles": "CCCN(CCC)CCC", "note": "[tripropylamine]", "values": [{"measurement": "water solubility of the amine carbonate", "setting": "[1]", "result": "form carbonates which are water soluble"}, {"measurement": "dissolution of the amine", "setting": "[1]", "result": "all of the amine went into solution"}]}]}
